Test results reported in US11690839B2, “Treatment of idiopathic pulmonary fibrosis” (TAKEDA GMBH, priority 2017, dated 2023).
Read-outs that look alike come from different tables or passages of the source.

Legend:
[1] = tested on: IPF mice model (DTR+ mice given diphtheria toxin); type: in vivo
[2] = tested on: WI-38 human lung fibroblasts; experiment: TGF-β induced mRNA expression of pro-fibrotic markers in WI-38 human lung fibroblast cell line; type: cell-based; details: WI-38 cells, various concentrations of Compound A 1 hour before TGF-β (3 ng/mL) and forskolin (1 μM), 24 hours incubation, normalized to GAPDH; FIG. 2
Protocol: 2) In Vitro Effects of PDE4 Inhibitor Compound A in […]
For gene expression assay, WI-38 human lung fibroblasts were suspended in Eagle's minimum essential medium (E-MEM, Invitrogen) containing 10% heat-inactivated fetal bovine serum (FBS) and seeded on 24 well plates as 0.5×10^5 cells/500 μL/well. Twenty-four hours after the seeding, medium was re-placed by E-MEM containing 0.5% FBS. Twenty-four hours after medium change, cells were treated with various concentration of Compound A. After 1 hour, cells were treated with TGF-β (3 ng/mL) and forskolin (1 μM). After the 24-hours incubation, total RNA was ex-tracted from cell lysate using RNeasy 96 Kit (QIAGEN 74182). cDNA was amplified using High-Capacity cDNA Reverse Transcription Kit (ABI 4368813), and target gene mRNA was measured using TaqMan PCR with predesigned primers for type 1 collagen alpha 1 chain (Hs00164004_m1, Applied Biosystems), fibronectin (Hs00365052_m1, Applied Biosystems), connective tissue growth factor (Hs01026927_g1, Applied Biosystems), plasminogen activator inhibitor-1 (Hs00167155_m1, Applied Biosystems) and GAPDH (Hs02758991_g1, Applied Biosystems) as the endogenous reference. The target gene expression levels were normalized by mRNA expression of GAPDH and the data represent the relative mRNA levels to TGF-β/forskolin-treated group.

| SMILES | body weight reduction by induction of epithelial cell injury ([1]; DT day 1-14, imatinib 50 mg/kg intraperitoneal once daily day 11-21, FIG. 1B) | suppression of lung hydroxyproline content (severity of lung fibrosis) ([1]; DT day 1-14, imatinib 50 mg/kg intraperitoneal once daily day 11-21, assessed day 21, FIG. 1A) | mRNA expression of fibrotic marker genes (type 1 collagen alpha 1, fibronectin, connective tissue growth factor, plasminogen activator inhibitor-1) induced by TGF-β [2] | body weight reduction by induction of epithelial cell injury ([1]; DT day 1-14, Compound A 0.3 or 3.0 mg/kg oral once daily day 11-21, FIG. 1B) | suppression of lung hydroxyproline content (severity of lung fibrosis) ([1]; DT day 1-14, Compound A oral gavage once daily day 11-21, already starting at 0.3 mg/kg (doses 0.3 and 3.0 mg/kg), assessed day 21, FIG. 1A) |
| --- | --- | --- | --- | --- | --- |
| Cc1ccc(NC(=O)c2ccc(CN3CCN(C)CC3)cc2)cc1Nc1nccc(-c2cccnc2)n1 [Imatinib, reference compound] | not blunted | only a moderate efficacy | – | – | – |
| CCOc1cc2c(cc1OC)C(c1ccc(=O)n(C)c1)=N[C@@H]1CC[C@@H](O)C[C@H]21 [Compound A, 5-((2R,4aR,10bR)-9-Ethoxy-2-hydroxy-8-methoxy-1,2,3,4,4a,10b-hexahydro-phenanthridin-6-yl)-1-methyl-1H-pyridin-2-one] | – | – | significantly suppressed expression of fibrotic marker genes induced by TGF-β | blunting effect was shown | robust and significant effect on suppression of hydroxyproline content |
